Measurements as given in the supplement of paper PMC10307832.

How the values were obtained:
Assay in all cases: relative viability (nuclei count vs DMSO), 5 days (fraction); higher = more cells survive
NCI-H1975 = test system: NCI-H1975
Method in brief: (§1)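 Lung cancer cell lines in 1536-well plates were dosed by pin tool the day after seeding, either with one drug alone or with a fixed anchor-drug dose plus five library-drug doses (not always all listed) in √10 steps. After 5 days, cells were fixed and their nuclei stained in one step (final 0.05% Triton X-100, 1% formaldehyde, 1 ug/ml Hoechst), then counted on 4× images. Relative viability is the nuclei count in treated wells divided by that in vehicle wells. Values are medians of duplicate plates.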

HCC-827 = test system: HCC-827
Method in brief: as §1

NCI-H23 = test system: NCI-H23
Method in brief: as §1

HARA = test system: HARA
Method in brief: as §1

201T = test system: 201T
Method in brief: as §1

HCC-15 = test system: HCC-15
Method in brief: as §1

A-427 = test system: A-427
Method in brief: as §1

NCI-H358 = test system: NCI-H358
Method in brief: as §1

NCI-H838 = test system: NCI-H838
Method in brief: as §1

BEN = test system: BEN
Method in brief: as §1

COR-L23 = test system: COR-L23
Method in brief: as §1

NCI-H1650 = test system: NCI-H1650
Method in brief: as §1

NCI-H1792 = test system: NCI-H1792
Method in brief: as §1

NCI-H650 = test system: NCI-H650
Method in brief: as §1

HCC-44 = test system: HCC-44
Method in brief: as §1

NCI-H1437 = test system: NCI-H1437
Method in brief: as §1

NCI-H441 = test system: NCI-H441
Method in brief: as §1

NCI-H596 = test system: NCI-H596
Method in brief: as §1

EKVX = test system: EKVX
Method in brief: as §1

SK-MES-1 = test system: SK-MES-1
Method in brief: as §1

Compound `Nc1ccn([C@@H]2O[C@H](CO)[C@@H](O)[C@@H]2O)c(=O)n1` [Cytarabine] + C[C@@H](Oc1cc(-c2cnn(C3CCNCC3)c2)cnc1N)c1c(Cl)ccc(F)c1Cl [Crizotinib] (partner 1 µM) has a relative viability (NCI-H1975; first compound 0.005 µM) of 0.801, a relative viability (NCI-H1975; first compound 0.01581 µM) of 1.01 and a relative viability (NCI-H1975; first compound 0.05 µM) of 0.994. It also gave a relative viability (NCI-H1975; first compound 0.1581 µM) of 0.667, a relative viability (NCI-H1975; first compound 0.5 µM) of 0.373 and a relative viability (HCC-827; first compound 0.005 µM) of 0.593. The relative viability (HCC-827; first compound 0.01581 µM) was 0.478, the relative viability (HCC-827; first compound 0.05 µM) was 0.477 and the relative viability (HCC-827; first compound 0.1581 µM) was 0.197. It also gave a relative viability (HCC-827; first compound 0.5 µM) of 0.249, a relative viability (NCI-H23; first compound 0.005 µM) of 0.458 and a relative viability (NCI-H23; first compound 0.01581 µM) of 0.369. It also gave a relative viability (NCI-H23; first compound 0.05 µM) of 0.311, a relative viability (NCI-H23; first compound 0.1581 µM) of 0.226 and a relative viability (NCI-H23; first compound 0.5 µM) of 0.209. For the same compound, the relative viability (HARA; first compound 0.005 µM) was 1.01, the relative viability (HARA; first compound 0.01581 µM) was 0.682 and the relative viability (HARA; first compound 0.05 µM) was 0.333. The relative viability (HARA; first compound 0.1581 µM) was 0.223, the relative viability (HARA; first compound 0.5 µM) was 0.169 and the relative viability (201T; first compound 0.005 µM) was 1.04. It also gave a relative viability (201T; first compound 0.01581 µM) of 0.999, a relative viability (201T; first compound 0.05 µM) of 1.01 and a relative viability (201T; first compound 0.1581 µM) of 0.97. It also gave a relative viability (201T; first compound 0.5 µM) of 1, a relative viability (HCC-15; first compound 0.005 µM) of 0.765 and a relative viability (HCC-15; first compound 0.01581 µM) of 0.895. It also gave a relative viability (HCC-15; first compound 0.05 µM) of 0.84, a relative viability (HCC-15; first compound 0.1581 µM) of 0.67 and a relative viability (HCC-15; first compound 0.5 µM) of 0.591. It also gave a relative viability (A-427; first compound 0.005 µM) of 0.605, a relative viability (A-427; first compound 0.01581 µM) of 0.414 and a relative viability (A-427; first compound 0.05 µM) of 0.149. It also gave a relative viability (A-427; first compound 0.1581 µM) of 0.172, a relative viability (A-427; first compound 0.5 µM) of 0.173 and a relative viability (NCI-H358; first compound 0.005 µM) of 0.488. For the same compound, the relative viability (NCI-H358; first compound 0.01581 µM) was 0.5, the relative viability (NCI-H358; first compound 0.05 µM) was 0.352 and the relative viability (NCI-H358; first compound 0.1581 µM) was 0.319. It also gave a relative viability (NCI-H358; first compound 0.5 µM) of 0.231, a relative viability (NCI-H838; first compound 0.005 µM) of 0.715 and a relative viability (NCI-H838; first compound 0.01581 µM) of 0.877. The relative viability (NCI-H838; first compound 0.05 µM) was 0.699, the relative viability (NCI-H838; first compound 0.1581 µM) was 0.339 and the relative viability (NCI-H838; first compound 0.5 µM) was 0.224. It also gave a relative viability (BEN; first compound 0.005 µM) of 0.605, a relative viability (BEN; first compound 0.01581 µM) of 0.66 and a relative viability (BEN; first compound 0.05 µM) of 0.449. The relative viability (BEN; first compound 0.1581 µM) was 0.311, the relative viability (BEN; first compound 0.5 µM) was 0.292 and the relative viability (COR-L23; first compound 0.005 µM) was 0.578. For the same compound, the relative viability (COR-L23; first compound 0.01581 µM) was 0.631, the relative viability (COR-L23; first compound 0.05 µM) was 0.405 and the relative viability (COR-L23; first compound 0.1581 µM) was 0.166. It also gave a relative viability (COR-L23; first compound 0.5 µM) of 0.122, a relative viability (NCI-H1650; first compound 0.005 µM) of 0.752 and a relative viability (NCI-H1650; first compound 0.01581 µM) of 1.05. The relative viability (NCI-H1650; first compound 0.05 µM) was 0.544, the relative viability (NCI-H1650; first compound 0.1581 µM) was 0.315 and the relative viability (NCI-H1650; first compound 0.5 µM) was 0.188. It also gave a relative viability (NCI-H1792; first compound 0.005 µM) of 0.624, a relative viability (NCI-H1792; first compound 0.01581 µM) of 0.882 and a relative viability (NCI-H1792; first compound 0.05 µM) of 0.861. It also gave a relative viability (NCI-H1792; first compound 0.1581 µM) of 0.53, a relative viability (NCI-H1792; first compound 0.5 µM) of 0.465 and a relative viability (NCI-H650; first compound 0.005 µM) of 0.664. For the same compound, the relative viability (NCI-H650; first compound 0.01581 µM) was 0.519, the relative viability (NCI-H650; first compound 0.05 µM) was 0.353 and the relative viability (NCI-H650; first compound 0.1581 µM) was 0.259. For the same compound, the relative viability (NCI-H650; first compound 0.5 µM) was 0.177, the relative viability (HCC-44; first compound 0.005 µM) was 0.776 and the relative viability (HCC-44; first compound 0.01581 µM) was 0.831. For the same compound, the relative viability (HCC-44; first compound 0.05 µM) was 0.626, the relative viability (HCC-44; first compound 0.1581 µM) was 0.383 and the relative viability (HCC-44; first compound 0.5 µM) was 0.378. For the same compound, the relative viability (NCI-H1437; first compound 0.005 µM) was 0.576, the relative viability (NCI-H1437; first compound 0.01581 µM) was 0.817 and the relative viability (NCI-H1437; first compound 0.05 µM) was 0.472. The relative viability (NCI-H1437; first compound 0.1581 µM) was 0.258, the relative viability (NCI-H1437; first compound 0.5 µM) was 0.156 and the relative viability (NCI-H441; first compound 0.005 µM) was 0.776. The relative viability (NCI-H441; first compound 0.01581 µM) was 0.824, the relative viability (NCI-H441; first compound 0.05 µM) was 0.598 and the relative viability (NCI-H441; first compound 0.1581 µM) was 0.199. For the same compound, the relative viability (NCI-H441; first compound 0.5 µM) was 0.165, the relative viability (NCI-H596; first compound 0.005 µM) was 0.889 and the relative viability (NCI-H596; first compound 0.01581 µM) was 0.961. For the same compound, the relative viability (NCI-H596; first compound 0.05 µM) was 0.786, the relative viability (NCI-H596; first compound 0.1581 µM) was 0.614 and the relative viability (NCI-H596; first compound 0.5 µM) was 0.743. For the same compound, the relative viability (EKVX; first compound 0.005 µM) was 0.802, the relative viability (EKVX; first compound 0.01581 µM) was 1.07 and the relative viability (EKVX; first compound 0.05 µM) was 0.827. It also gave a relative viability (EKVX; first compound 0.1581 µM) of 0.368, a relative viability (EKVX; first compound 0.5 µM) of 0.287 and a relative viability (SK-MES-1; first compound 0.005 µM) of 0.706. For the same compound, the relative viability (SK-MES-1; first compound 0.01581 µM) was 0.741, the relative viability (SK-MES-1; first compound 0.05 µM) was 0.367 and the relative viability (SK-MES-1; first compound 0.1581 µM) was 0.274. For the same compound, the relative viability (SK-MES-1; first compound 0.5 µM) was 0.219.
